Experimental data published in patent US20230346827A1 (priority 2020, published 2023).

How the values were obtained:
Mouse cortical neurons = assay: Gene expression array and pathway analysis, cortical neurons, LMW-DS 0.01 mg/ml 48 h; assay type: cell-based; settings: for number of genes: abolished nutrient effect / number of genes: new effect induced by LMW-DS / number of genes: total / number of genes: enhanced response to nutrients / number of genes: not different from control: cortical neurons
Protocol: For each cell line, n=8 × 25 cm^2 culture flasks were set up. Two flasks were harvested for each cell type on the day of treatment (24 hours after seeding). This represents the Day0 time point. From the remaining flasks, three flasks were treated with Control Medium and three were treated with Culture Medium (CM) containing LMW-DS to give a final concentration of 0.01 mg/ml. Cells from the treated flasks were collected after 48 hours. Therefore the collected data represent (a) untreated cells (Day0 Controls and Day2 Controls) and (b) cells treated with LMW-DS (ILB®, Tikomed AB, Viken, Sweden, WO 2016/076780) for 48 hours (Day2 LMW-DS treated).
Medium was prepared by adding 10 ml B-27 Serum-Free Supplement and 2.5 ml GlutaMAX™-1 Supplement to 500 ml of Neurobasal medium. The medium was pre-warmed to 37° C. Cells from 12 vials were thawed sequentially in a 37° C. water bath for no longer than 2 min and gently transferred into a 15 ml tube. 9 ml of medium was gently added drop-wise to each. The cell suspension was mixed by inverting the tubes carefully twice.
The cells were centrifuged for 5 minutes at 200 x g. Supernatant was removed (to the last 0.5 ml) and cells were gently re-suspended by trituration. The cells from the 12 vials were mixed and distributed equally into the previously coated 25 cm^2 flasks (n=8). Cells were incubated at 37° C. with 5% CO2 for 24 hours.
LMW-DS was provided at a stock concentration of 20 mg/ml and was kept in a temperature monitored refrigerator at 4° C. A fresh 100x LMW-DS stock (1.0 mg/ml) was prepared in sterile DMEM-F12. The concentrated drug stock was sterile filtered and added to the respective culture media (19.6 ml CM and 0.4 ml LMW-DS stock solution). The Control was made using 19.6 ml CM and 0.4 ml of DMEM-F12. LMW-DS and CM were added to the respective flasks (5 ml each) to reach the 0.01 mg/ml concentration of LMW-DS in each dish with a total of 10 ml CM each.
CM was aspirated into a clean and labelled 15 ml Falcon tube. The flasks (without culture medium) were placed into the -80° C. freezer for 30 minutes. The CM in the Falcon tubes was spun at 3000 x g for 5 minutes. Supernatant was removed and the small pellet was re-suspended in 2.5 ml Trizol:Water (4:1) solution at room temperature (RT, ~22° C.).
Two aliquots of 1 ml lysate were removed from each sample and 200 µl of chloroform was added to each (0.2 ml of chloroform per 1 ml of TRIzol Reagent used during the cell lysis step) and the tube was shaken vigorously. Samples were stored at RT for 2-3 minutes and subsequently centrifuged at 12,000 x g for 15 minutes at 4° C.
The RNA was precipitated from the aqueous phase by adding an equal amount of 100% ethanol. The precipitated RNA was fixed onto a Spin Cartridge, washed twice and dried. The RNA was eluted in 50 µl warm RNase-Free Water. The amount and quality of the purified RNA was measured by Nanodrop. The RNA was stored at -80° C. before transfer to Source Bioscience for Array analysis.
The expression data were downloaded into separate files for each cell line. The ‘Background corrected’ expression is the data from the “gProcessedSignal” of the arrays that is the result of the background signal extracted from the actual signal of the relevant probe. This is the most often used variable in array analysis. The background corrected signal was log2 transformed for all samples for statistical analysis. To reduce the false discovery rate in the samples, the signals that were below ‘expression level’ were removed. The ‘below expression’ level was set at 5 for the log2 transformed expression values.
Based on the expression pattern of the Control probes on each array it was decided to carry out Median Centering for all arrays before analysis to reduce the variability of the results. […]

SARS-CoV-2 = settings: incubation of SARS-CoV-2 with exogenous LMW-DS; cited from earlier work
ALS patients = assay: Blood myoglobin, creatine kinase and HGF in ALS patients, dextran sulfate 1 mg/kg s.c. weekly for five weeks (Example 15); assay type: in vivo, human; set-up: circulating HGF, peak: unit not given here
Protocol: A clinical trial in the form of a Phase IIa, single-center, open label, single-arm study where the safety, tolerability and possible efficacy of subcutaneously administered dextran sulfate was evaluated in patients with ALS of intermediate progression rate. The clinical trial was conducted at the Sahlgrenska University Hospital, Gothenburg, Sweden and was overseen and approved by the Ethics Committee of the University of Gothenburg and by the Swedish Medical Products Agency.
Dextran sulfate (Tikomed AB, Viken, Sweden, WO 2016/076780) was administered at 1 mg/kg by […] subcutaneous injection once a week for five weeks to 13 human patients suffering from ALS.
Blood samples were drawn at defined study intervals by a venous catheter into vacutainer tubes. Laboratory analyses of blood plasma were performed immediately after collection by the Clinical Chemistry Laboratory at the Sahlgrenska University Hospital.

[1] = pathway analysis of gene expression

## sodium salt of dextran sulfate [LMW-DS]
Mouse cortical neurons; D0 control to D2 LMW-DS treated
  number of differentially expressed genes: 609
Mouse cortical neurons; D0 control to D2 LMW-DS treated (second statement)
  number of differentially expressed genes: 247
Mouse cortical neurons; no effect
  number of genes: abolished nutrient effect: 572
  number of genes: new effect induced by LMW-DS: 19
  number of genes: total: 591
Mouse cortical neurons; significant downregulation
  number of genes: abolished nutrient effect: 7
  number of genes: enhanced response to nutrients: 158
  number of genes: new effect induced by LMW-DS: 22
  number of genes: not different from control: 95
  number of genes: total: 282
Mouse cortical neurons; significant upregulation
  number of genes: abolished nutrient effect: 33
  number of genes: enhanced response to nutrients: 43
  number of genes: new effect induced by LMW-DS: 7
  number of genes: not different from control: 221
  number of genes: total: 304
Mouse cortical neurons; total
  number of genes: abolished nutrient effect: 612
  number of genes: enhanced response to nutrients: 612
  number of genes: new effect induced by LMW-DS: 48
  number of genes: not different from control: 316
  number of genes: total: 1177
Mouse cortical neurons; [1]
  deleterious effects of oxidative stress (amyloid-β and Lewy body pathology, mitochondrial dysfunction): prevent and reverse
  glutamate production: did not alter
SARS-CoV-2
  viral replication within ex vivo human lung tissue explants: reduced viral replication
ALS patients; after 4 weeks of treatment
  reduction in creatine kinase levels: 13.3%
  serum creatine kinase levels: 6.2 ± 5.08 µkat/L
  serum myoglobin levels: 103.69 ± 72.16 µg/L
ALS patients; after 4 weeks of treatment vs Day 1
  reduction in myoglobin levels: 30%
ALS patients; peak at 2.5 hours after injection
  circulating HGF, peak: 37863 ± 14235
